Values after ≈ are worked out from the molar mass of the structure shown.
Key:
synaptophysin = assay: Western blot of synaptophysin in cortex and hippocampus after CCI; type: in vivo, rat; settings: 20 mg/kg, first injection 2 h post-trauma, day 35, injured hippocampus
Protocol: FIG. 22: Synaptophysin expression, 35 days after TBI, in the left-uninjured and right-injured hemispheres (A: cortex and B: hippocampus) of CCI-injured animals, receiving either vehicle (D0) or MAP4343 (D1: 10 mg/kg and D2: 20 mg/kg), 2 h after injury.
(§1) Samples were analyzed by Western-blot at day 35 post-trauma (D35) to evaluate the effects of MAP4343 on: MAP2 (the target of MAP4343 and a modulator of microtubule function), the post-synaptic markers PSD95 and spinophilin, the pre-synaptic marker synaptophysin, and the axonal growth/integrity marker GAP43.
(§2) Western blot was performed on cortex and hippocampus of TBI-injured animals receiving the first injection of MAP4343 (at 10 mg/kg or 20 mg/kg) or vehicle (sesame oil) 2 h after injury.
(§3) The expression level of various neuronal brain markers of plasticity was measured at day 35 post-trauma by western-blots in the cortex and hippocampus of left uninjured and right injured cerebral hemispheres of CCI traumatized animals receiving either vehicle (sesame oil, CCI-D0) or 3-methoxy-PREG (MAP4343) at 10 mg/kg (CCI-D1) or 20 mg/kg (CCI-D2), with first MAP4343 injection 2 h post-trauma.

[1] = test system: microtubule-associated MAP2 in PC12 cells; assay: Immunolabeling of microtubule-associated MAP2 in PC12 cells; type: cell-based, rat; settings: 20 μM, NGF 10 ng/ml (FIG. 4)
Description: They were fixed and exposed to anti-MAP2 antibodies that reveal microtubule-associated MAP2 exclusively.
To test the effect of selected molecules on neuritic growth, we first used the PC12 line, which has long been employed in neurobiological research. In the presence of NGF (nerve growth factor), the cells of this line, which arise from a rat pheochromocytoma, form neuritic extensions containing MAP-associated microtubules. The growth of these elongations is stimulated by the addition of PREG. […] This neurite growth accompanies the stimulation by 43-B of the association of MAP2 to the microtubules (FIG. 4).

[2] = target: T1, human progesterone receptor(PR) (Homo sapiens, UniProt P06401); assay: Test of progesterone receptor antagonist activity (luciferase transactivation, HEK293T); type: cell-based; settings: with progesterone (1 nM), increasing amounts
T1 construct: expressed in transfected cells; host or cells: HEK293T
T1 sequence (P06401 1-933): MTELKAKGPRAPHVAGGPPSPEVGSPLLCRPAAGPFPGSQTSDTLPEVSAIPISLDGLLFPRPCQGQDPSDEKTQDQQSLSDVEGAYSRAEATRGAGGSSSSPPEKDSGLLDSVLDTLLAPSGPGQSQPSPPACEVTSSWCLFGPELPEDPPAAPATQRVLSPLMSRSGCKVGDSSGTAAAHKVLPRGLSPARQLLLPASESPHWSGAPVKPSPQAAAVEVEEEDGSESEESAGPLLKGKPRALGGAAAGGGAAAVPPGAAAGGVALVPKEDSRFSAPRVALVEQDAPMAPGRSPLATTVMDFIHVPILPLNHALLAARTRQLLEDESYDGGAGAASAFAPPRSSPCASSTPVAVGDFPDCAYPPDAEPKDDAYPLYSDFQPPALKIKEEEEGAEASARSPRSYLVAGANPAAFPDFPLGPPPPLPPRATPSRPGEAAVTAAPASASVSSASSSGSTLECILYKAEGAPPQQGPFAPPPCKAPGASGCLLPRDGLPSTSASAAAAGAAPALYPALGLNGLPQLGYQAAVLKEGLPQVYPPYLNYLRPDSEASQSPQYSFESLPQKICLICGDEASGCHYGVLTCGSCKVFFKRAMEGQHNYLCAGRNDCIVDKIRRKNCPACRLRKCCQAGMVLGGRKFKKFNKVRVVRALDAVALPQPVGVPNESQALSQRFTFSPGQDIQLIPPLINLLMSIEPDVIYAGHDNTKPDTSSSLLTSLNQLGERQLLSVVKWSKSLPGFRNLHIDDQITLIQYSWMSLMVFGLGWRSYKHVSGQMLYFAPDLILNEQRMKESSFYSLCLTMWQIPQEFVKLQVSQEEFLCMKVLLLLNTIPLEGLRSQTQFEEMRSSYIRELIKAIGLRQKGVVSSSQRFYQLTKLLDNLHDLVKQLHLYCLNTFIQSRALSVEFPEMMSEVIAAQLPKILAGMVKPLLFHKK
Protocol: The main experimental setting used is the following: HEK293T cells were transiently transfected, using calcium phosphate precipitation technology, with expression vectors pSG5hPR (which permits expression of human progesterone receptor(PR)), pFC31-luc (contains the luciferase gene under the control of the MMTV promoter, which is in turn activated by binding of a progestin to progesterone receptor) and pcbetagal (which permits expression of betagalactosidase), and cultured during 24 hours with increasing amounts of various compositions: • 1. […] Test of progesterone receptor […] activity: transfected cells were cultured with progesterone (1 nM) and increasing amounts of RU486 (a well-known progesterone receptor antagonist) or 3-methoxy-pregnenolone. • With this setting, a compound with progesterone receptor antagonist activity competes with progesterone for the occupation of progesterone receptor and results in a progressive loss of transactivation activity when the amount of this compound is increased compared to progesterone.

PC12 cells = assay: Retraction of neurites induced by nocodazole; type: cell-based, rat; settings: pretreated one hour at 30 μM, nocodazole 15 minutes
Description: FIG. 5: Retraction of neurites (neurites) induced by nocodazole.
Nocodazole is a microtubule depolymerizing agent. Its addition to PC12 cell cultures, differentiated in the presence of NGF, causes neurites to retract as a result of the depolymerization of their microtubules.

GAP43 = assay: Western blot of GAP43 in cortex and hippocampus after CCI; type: in vivo, rat; settings: first injection 2 h post-trauma, day 35, injured cortex (20 mg/kg only), hippocampus and non-injured cortex (both doses)
Protocol: FIG. 23: GAP43 expression, 35 days after TBI, in the left-uninjured and right-injured hemispheres (A: cortex and B: hippocampus) of CCI-injured animals, receiving either vehicle (D0) or MAP4343 (D1: 10 mg/kg and D2: 20 mg/kg), 2 h after injury.
as §1, §2, §3

[3] = test system: 80 different CNS neurotransmitters receptors; assay: Screen for in vitro affinity to 80 different CNS neurotransmitters receptors; type: binding
Description: MAP4343 has been screened for in vitro affinity to 80 different CNS neurotransmitters receptors using various validated binding assays.

Solubility limit = type: physicochemical; settings: read-out: solubility limits
spinophilin = assay: Western blot of spinophilin in cortex and hippocampus after CCI; type: in vivo, rat; settings: 10 mg/kg or 20 mg/kg, first injection 2 h post-trauma, day 35, injured cortex and hippocampus and contralaterally
Protocol: FIG. 21: Spinophilin expression, 35 days after TBI, in the left-uninjured and right-injured hemispheres (A: cortex and B: hippocampus) of CCI-injured animals, receiving either vehicle (D0) or MAP4343 (D1: 10 mg/kg and D2: 20 mg/kg), 2 h after injury.
as §1, §2, §3

In the case of `CO[C@H]1CC[C@@]2(C)C(=CC[C@H]3[C@@H]4CC[C@H](C(C)=O)[C@@]4(C)CC[C@@H]32)C1` [3-methoxy-PREG, 3β-methoxy-pregna-5-ene-20-one], the Synaptophysin expression (synaptophysin) is reported as “increase in Synaptophysin expression”, the “association of MAP2 to the microtubules” value [1] is reported as “stimulation” and the “progesterone receptor antagonist activity” value [2] is reported as “weak progesterone receptor antagonist”. For the same compound, the “resistance of neurites to nocodazole” value (PC12 cells) was “makes the neurites resistant to nocodazole”, the GAP-43 expression (GAP43) was “increased GAP-43 expression” and the “affinity for any tested receptor” value [3] was “no significant affinity”. For the same compound, the solubility (Solubility limit) was ~50 µM (≈ 16.5 µg/mL) and the spinophilin expression (spinophilin) was “increase in spinophilin expression”.
